From paper PMC5387716, “Discovery of monocarbonyl curcumin-BTP hybrids as STAT3 inhibitors for drug-sensitive and drug-resistant breast cancer therapy” (Scientific Reports, 2017) come the findings set out here.

SMILES strings stand for the structures.

Type in all cases: cell-based, human
One assay relates to STAT1. The assay is described as follows: IFN-γ induced STAT1 phosphorylation (western blot). The following applies: MCF-7, 0.5–4 μM, 6 h, IFN-γ 50 ng/mL 30 min; compared with effect on IL-6-induced p-STAT3.
Assay [1] concerns MCF-7 cells. Description: ROS detection by DCFH-DA flow cytometry, MCF-7. The following applies: MCF-7, different concentrations (1, 2, 4 μM), 24 h. On the procedure:
MCF-7 or MCF-7/DOX cells were seeded at a density of 3 × 10^5 cells per well of a 6-well plate and treated with various concentrations of 6b (0, 1, 2, 4 μM) or 4 μM curcumin for 24 h. DCFH-DA was dissolved in serum-free medium and diluted to a final concentration of 10 μM. After treatment with 6b, the growth media was replaced with serum-free medium containing the probe. After incubation for 20 min at 37 °C, cells were washed with serum-free medium twice, digested by trypsin and resuspended in pre-warmed PBS buffer. The samples were then subjected to a flow cytometry assay using a BD FACSCalibur flow cytometer (Becton & Dickinson Company, Franklin Lakes, NJ).

Assay [2] concerns MCF-7 cells. Description: Flow cytometry of the cell cycle, MCF-7. The settings on record: MCF-7, 24 h. On the procedure: MCF-7 or MCF-7/DOX cells were plated in 6-well culture plates (1.5 × 10^5 cells per well). After incubation overnight, various concentrations of 6b or curcumin were added and cells were incubated for 24 h. Cells were harvested, washed with cold PBS, and incubated with pre-cooled 70% ethanol for a minimum of 4 h at 4 °C to fix them. The cells were then centrifuged, carefully aspirated from the supernatant, and re-suspended in a propidium iodide (final concentration, 40 μg/ml) and RNase A (final concentration, 100 μg/ml) solution at a final cell density of 0.5 × 10^6 cells/ml. The suspension was incubated at 37 °C for 30 min prior to analysis by flow cytometry.

For another assay, the system named is STAT3. The assay is described as follows: Immunofluorescence of p-STAT3 nuclear translocation. The following applies: MCF-7 cells, 6 h then IL-6 50 ng/ml 30 min. On the procedure: The basic protocol for the analysis of p-STAT3 subcellular location has been previously described. Briefly, MCF-7 cells were starved overnight, followed by incubation with 6b for 6 h. Cells were then stimulated with 50 ng/ml IL-6 for 30 min before being harvested in Tris-buffered saline (TBS) containing 1 mM sodium orthovanadate. Cells were transferred to polylysine-coated slides by cytospin and air dried for 20 min at room temperature. After being fixed in 2% of paraformaldehyde for 10 min and permeabilized in 0.1% Triton X-100 for 5 min, cells were blocked in TBS containing 5% bovine serum albumin for 1 h at room temperature before being stained with p-STAT3 (Tyr705) overnight at 4 °C. Then, cells were gently washed and incubated with FITC–conjugated, goat, anti-rabbit IgG (Beyotime Biotechnology Ltd). Finally, slides were incubated with 5 μg/ml of 4′,6-diamidino-2-phenylindole (DAPI, Beyotime) for 5 min. The subcellular location and relative abundance of p-STAT3 were immediately analyzed with an ImageXpress Micro Confocal analysis.

Another assay relates to MCF-7/DOX cells. The assay is described as follows: Colony survival assay, MCF-7/DOX. The settings on record: 24 h treatment, 14 d culture. On the procedure: MCF-7 or MCF-7/DOX cells were cultured a 6-well plate at a density of 800–1,000 cells/well with regular growth medium. Cells were treated for 24 h with the vehicle and 6b at 0.15–1 μM on the following day. Cells were allowed to grow for 10–14 d until colonies were visible. Crystal violet solution (Sigma, St. Louis, MO, USA) was used to stain the colonies for 4 hours and colonies were imaged.

For assay [3], the system named is MCF-7 cells. Description: MTT anti-proliferative assay, MCF-7. The following applies: Homo sapiens, MCF7, 48 h, read-out: MCF-7 IC50 ± SD. On the procedure: All cell lines were purchased from Cell Bank of Shanghai Institute of Biochemistry and Cell Biology, Chinese Academy of Sciences (Shanghai, China). Human breast carcinoma cells (MCF-7 and MCF-7/DOX), breast epithelial cells (MCF-10A) and normal human liver cells (LO2) were maintained in RPMI-1640 medium. All cells were supplemented with 12% fetal bovine serum containing 50 μg/ml penicillin and 50 μg/ml streptomycin. Cells were grown to 80% confluency in a tissue culture flask at 37 °C in a humidified atmosphere containing 5% CO2, and then were trypsinized with 1 × Trypsin-Versene and split. The MCF-7/DOX cell line we used was established from its parental cell line MCF-7 cell by gradually increasing the concentration of DOX to which the cells were exposed in a stepwise manner over a period of 8 months. […] The cells were incubated in drug-free medium for at least 1 week before use.
Cells (MCF-7, MCF-7/DOX, MCF-10A, LO2) were seeded in 96-well plates at a density of 3,000–6,000 cells per well. The cells were incubated overnight (16 h) in a humidified 5% CO2 incubator at 37 °C. After media removal, different concentrations of test compounds were added in triplicate to the plates in 200 μL of fresh media and were incubated with the cells at 37 °C for 48 h. […] Cell viability was evaluated using 3-(4, 5-dimethylthiazolyl)-2,5-diphenyltetrazoliumbromide (MTT). The absorbance was read by an ELISA reader (SpectraMax Plus384, Molecular Devices, Sunnyvale, CA) at a test wavelength of 570 nm and a reference wavelength of 630 nm. Cell viability was calculated using the following formula: […]

Consider `COc1ccc(/C=C/C(=O)N2CCN(C(=O)C3=Cc4cc(Br)ccc4S3(=O)=O)CC2)cc1` [Compound 6b, (E)-1-(4-(5-bromo-1,1-dioxidobenzo[b]thiophene-2-carbonyl)piperazin-1-yl)-3-(4-methoxyphenyl)prop-2-en-1-one], for which, in the assay with STAT1, the “IFN-γ-induced STAT1 phosphorylation” value is “less of an effect”. Besides, the “increase of ROS levels” value in the assay on MCF-7 cells [1] is 2–8 fold. Further, in the assay with MCF-7 cells [2], the “cells in the Sub-G1 phase” value is on record as “significant increase” and the “percentage of cells in S phase” value is “increased”. In addition, the “p-STAT3 level in the nucleus” value with STAT3 is given as “sharp decrease”. In addition, the “clonogenic ability / colony formation” value with MCF-7/DOX cells (0.25 μM) is “significant reduction in clonogenic ability”. Also, the “clonogenic ability / colony formation” value in the assay on MCF-7/DOX cells (0.5 μM) is on record as “almost a cessation of colony formation”. In addition, the IC50 with MCF-7 cells [3] came out at 520 ± 160 nM.
